The source of these data is publication PMC12040169 (PLOS Biology, 2025).

The first series is described as follows: in vitro. The conditions noted are these: human, hela cells, % viability.
Broadly, the viability is a read-out of living cells in per cent, often relative to untreated cells. Regarding `Cc1ccc(C)c2c1c1nc3ccccc3nc1n2Cc1nnc(-c2ccccc2)o1` [CBK268677], the viability at 28.5 h, 10 µM worked out at 104%.

As for `Cc1cnc(C(=O)N2CCC3(CC2)CC(=O)c2cc(Cl)cc(Cl)c2O3)cn1` [CBK156502], the viability at 28.5 h, 10 µM is 89.7%.

In the case of `Cc1nc(-c2ccncc2)c2c(C)nn(-c3ccc(F)cc3)c2n1` [CBK288545], the viability at 28.5 h, 10 µM came to 89.2%.

In the case of `O=C(CN1CCC(NC(=O)c2cccs2)CC1)Nc1cc(F)ccc1F` [CBK305997], the viability at 28.5 h, 10 µM is 102%.

Take `CCCCCOc1ccc(Nc2cc(-c3ccco3)ncn2)cc1` [CBK090892]: the viability at 28.5 h, 10 µM was determined as 92.6%.

Consider `CCNC(=O)Nc1ncc(-c2ccc(OC(F)(F)F)cc2)c2cccnc12` [CBK070690], for which the viability at 28.5 h, 10 µM came out at 94%.

For `Cc1ccc(N2C(=O)CC(Sc3ncccc3C(=O)O)C2=O)cc1` (centres unmarked) [CBK287761], the viability at 28.5 h, 10 µM was 87.7%.

Take `O=C(NC1CCCC1)C1CCCN1c1nc(O)cc(C(F)(F)F)n1` (centres unmarked) [CBK003927]: the viability at 28.5 h, 10 µM is 83.5%.

For the compound `Cn1nccc1CNCc1c(Br)cc(F)c(F)c1N1CCCCC1` [CBK306284], the viability at 28.5 h, 10 µM came out at 92.8%.

Regarding `Cc1cccn2cc(C(=O)N(C)CCn3ccnc3C)nc12` [CBK281735], the viability at 28.5 h, 10 µM stood at 91.7%.

On to `CC(=O)Nc1c(C)ccc(S(=O)(=O)N2CCOCC2)c1C` [CBK034327], for which the viability at 28.5 h, 10 µM was 98.6%.

As for `CCc1ocnc1C(=O)NC1CCN(c2ncccc2C#N)CC1` [CBK306935], the viability at 28.5 h, 10 µM was 93%.

In the case of `O=C(CN1CCOCC1)NC(=O)Nc1ccccc1` [CBK269213], the viability at 28.5 h, 10 µM is 98%.

On to `Cc1nc2ccc(NC(=S)N3CCN(c4ccccn4)CC3)cc2nc1C` [CBK267227], for which the viability at 28.5 h, 10 µM stood at 67.1%.

For `CNC(=O)[C@@H]1CN(Cc2ccccc2)C[C@H]1C(=O)c1ccc(F)cc1` [CBK282902], the viability at 28.5 h, 10 µM was 110%.

As for `Cc1ncc([N+](=O)[O-])n1CCOC(=O)NC(N1CCOCC1)C(Cl)(Cl)Cl` (centres unmarked) [CBK261299], the viability at 28.5 h, 10 µM is 103%.

Turning to `Cc1nc2ncnn2c(C)c1CCC(=O)OCc1ccc(C#N)cc1` [CBK305838], the viability at 28.5 h, 10 µM is 83.7%.

Regarding `Cc1ccc(-n2c3nc(=O)[nH]c(=O)c-3cc3c(Cl)cccc32)c(C)c1` [CBK287965], the viability at 28.5 h, 10 µM amounted to 83.3%.

On to `Cc1nccn1CCNC(=O)CC1C(=O)N(C)c2ccccc21` (centres unmarked) [CBK281977], for which the viability at 28.5 h, 10 µM was 101%.

`S=C(NCc1ccc(-n2cccn2)cc1)NCC1CCCO1` (centres unmarked) [CBK267083]: the viability at 28.5 h, 10 µM was found to be 96.7%.

Regarding `O=C(NCc1ccccc1)NC(=O)C1CCN(CCCOc2cccc3ccccc23)CC1` [CBK034856], the viability at 28.5 h, 10 µM was 84.6%.

As for `COc1ccc(CC(=O)Nc2nnc(C)s2)cc1OC` [CBK287359], the viability at 28.5 h, 10 µM came to 113%.

Consider `COc1ccccc1OCc1ccc(C(=O)N2CCN(c3cccc(C(F)(F)F)c3)CC2)o1` [CBK074417], for which the viability at 28.5 h, 10 µM is 62.7%.

As to `O=C(NCCCNC(=O)c1ccccn1)c1ccc(Cl)cc1` [CBK269193], the viability at 28.5 h, 10 µM worked out at 88.5%.

As to `O=C(NCc1cccc(C(F)(F)F)c1)c1cnoc1-c1ccc(Br)cc1` [CBK153718], the viability at 28.5 h, 10 µM was 96.9%.

In the case of `O=C(Nc1ccc2c(c1)OCO2)c1nccnc1-c1ccc(COc2ccccc2)cc1` [CBK050834], the viability at 28.5 h, 10 µM stood at 109%.

Turning to `Cc1sc(-c2c(F)cccc2F)nc1O` [CBK067729], the viability at 28.5 h, 10 µM was determined as 102%.

Regarding `Oc1cccc(/C=N/n2c(S)nnc2-c2ccncc2)c1` [CBK265300], the viability at 28.5 h, 10 µM was 109%.

For the compound `O=C(CSc1nc(N2CCOCC2)nc(N2CCOCC2)n1)c1ccc([N+](=O)[O-])cc1` [CBK269107], the viability at 28.5 h, 10 µM is 86.9%.

Regarding `N#CCc1ccc(Nc2cc(-c3cccc(N)c3)ncn2)cc1` [CBK091187], the viability at 28.5 h, 10 µM was 96.7%.

As for `Cc1cc(NS(=O)(=O)c2ccc(Oc3ccccc3)cc2)n(C)n1` [CBK067249], the viability at 28.5 h, 10 µM worked out at 96.2%.

As for `O=S(=O)(c1ccc(-c2ccccc2)cc1)N1CCCN(Cc2cccnc2N2CCOCC2)CC1` [CBK063127], the viability at 28.5 h, 10 µM was 99.5%.

Take `CN(c1cncc(Cl)n1)C1CCN(Cc2ccccc2)CC1` [CBK012767F]: the viability at 28.5 h, 10 µM is 77.7%.

For `CCCC(=O)Nc1ccc(OCc2nnc(C)o2)c(C(C)=O)c1` [CBK305943], the viability at 28.5 h, 10 µM turned out to be 92.9%.

Consider `O=C(C1=C(O)C(=O)N(Cc2cccnc2)C1c1cccnc1)c1cccs1` (centres unmarked) [CBK264547], for which the viability at 28.5 h, 10 µM was 119%.

With `COCCc1nsc(N2CCC(N(C)c3cccnn3)CC2)n1` [CBK304701], the viability at 28.5 h, 10 µM was 94.1%.

`Cc1ccc(-n2nnc(C(=O)N3CCCCC3C(=O)O)c2C)cc1` (centres unmarked) [CBK304109]: the viability at 28.5 h, 10 µM was found to be 87.7%.

As to `O=C(CSc1nnc(-c2ccncc2)n1-c1ccccc1)Nc1ccnc2ccccc12` [CBK267900], the viability at 28.5 h, 10 µM was 101%.

For `CCC(CO)NCc1ccc(-c2ccccc2)cc1` (centres unmarked) [CBK268082C], the viability at 28.5 h, 10 µM amounted to 97.6%.

For `COc1ccc(CN(CCN(C)C)C(=O)NCc2ccc(Cl)cc2)cc1OC` [CBK159303], the viability at 28.5 h, 10 µM was 87.7%.

For the compound `COc1ccc(S(=O)(=O)Nc2ccc(S(=O)(=O)Nc3nccs3)cc2)cc1C` [CBK266011], the viability at 28.5 h, 10 µM was 101%.

Turning to `COc1ccc2[nH]cc(CCNC(=O)C3CC(=O)c4ccccc43)c2c1` (centres unmarked) [CBK116221], the viability at 28.5 h, 10 µM was 97.3%.

In the case of `CCOc1ccsc1C(=O)N1CCN(CCc2ccccc2)CC1` [CBK200229], the viability at 28.5 h, 10 µM stood at 91.5%.

Turning to `Cc1cc(NC(=O)c2ccccc2)nc2c1c(=O)oc1ccccc12` [CBK291126], the viability at 28.5 h, 10 µM came out at 113%.

As for `O=C(Nc1ccccc1C(=O)O)c1cc(S(=O)(=O)Nc2cccc([N+](=O)[O-])c2)ccc1Cl` [CBK263234], the viability at 28.5 h, 10 µM worked out at 90.3%.

As for `Cc1nc(-c2ccc(NC(=O)C3CC=CCC3C(=O)O)cc2)cs1` (centres unmarked) [CBK299815], the viability at 28.5 h, 10 µM stood at 99.4%.

On to `Cc1cc(CNS(=O)(=O)c2sc3ccc(C(C)C)cc3c2C)no1` [CBK170353], for which the viability at 28.5 h, 10 µM came out at 109%.

Regarding `COc1cccc(CNc2ccc(N3CCCCC3)cc2)c1OCc1cccs1` [CBK074531], the viability at 28.5 h, 10 µM came to 96.5%.

As to `NC12CC(=O)CC(CC(c3ccccc3)C1)C2` (centres unmarked) [CBK010323C], the viability at 28.5 h, 10 µM came out at 114%.

For the compound `COc1ccc([C@@]23CCC(N)C[C@@H]2N(C)CC3)c(F)c1OC` (some centres unmarked) [CBK067416], the viability at 28.5 h, 10 µM is 78.3%.

Take `O=S(=O)(c1ccc(Cl)s1)N1CCN(Cc2ccc3c(c2)OCO3)CC1` [CBK270324]: the viability at 28.5 h, 10 µM was determined as 89.5%.

Consider `CCOC(=O)c1cccnc1-c1cc2ccccc2o1` [CBK149237], for which the viability at 28.5 h, 10 µM turned out to be 99.7%.

Consider `COc1ccc(F)c(CN(CC(C)(C)CN)C(=O)Nc2ccccc2C(C)(C)C)c1` [CBK002478C], for which the viability at 28.5 h, 10 µM was 98.1%.

As for `Cc1cc(OCC(=O)N2CCN(c3ccccc3F)CC2)no1` [CBK305898], the viability at 28.5 h, 10 µM stood at 87.1%.

In the case of `Cc1ccc(CSc2nnc(-c3ccc(NC(=O)/C=C/c4ccccc4)cc3)n2C)cc1` [CBK263850], the viability at 28.5 h, 10 µM was found to be 90.4%.

On to `CN(Cc1ccccc1)c1nccnc1-c1ccccc1Cl` [CBK037502], for which the viability at 28.5 h, 10 µM worked out at 103%.

For `Cc1nonc1CC(=O)N1C2CCC1CC(c1ccc(F)cc1)C2` (centres unmarked) [CBK283739], the viability at 28.5 h, 10 µM amounted to 89.1%.

As for `CC(C)NC(=O)c1cccc2c1CCCN2Cc1nc2ccccc2o1` [CBK295135], the viability at 28.5 h, 10 µM came out at 101%.

Take `CCOc1cccc(CNC(=O)N2CCC(Cc3cnn(C)c3)C2)c1` (centres unmarked) [CBK305280]: the viability at 28.5 h, 10 µM stood at 115%.

Regarding `CCCCCNC(=N)NC1Cc2ccccc2C1` [CBK036321T], the viability at 28.5 h, 10 µM was determined as 98.8%.

Consider `Cc1ccc(S(=O)(=O)Nc2c(C(=O)N3CCN(C)CC3)[nH]c3ccccc23)cc1[N+](=O)[O-]` [CBK050060], for which the viability at 28.5 h, 10 µM came out at 90.1%.

For `CC(C)CNc1ccc(-c2cccc(N(C)C)c2)cn1` [CBK037603], the viability at 28.5 h, 10 µM was found to be 76.9%.

In the case of `COc1ccc(N2CCN(/C(=N\S(=O)(=O)c3ccc(C)cc3)Nc3nc(C)cc(C)n3)CC2)cc1` [CBK266564], the viability at 28.5 h, 10 µM amounted to 99.9%.

With `Cc1cc(NC(=O)CN2CC(C)CC(C)C2)nc2c1c(=O)oc1ccccc12` (centres unmarked) [CBK287620], the viability at 28.5 h, 10 µM was 108%.

For `O=C(/C=C/c1cccnc1)Nc1c(F)cc(F)cc1OC1CCNCC1` [CBK050324T], the viability at 28.5 h, 10 µM was found to be 90.5%.

Consider `Cc1cc(N)cc(C)c1O` [CBK012062C], for which the viability at 28.5 h, 10 µM was 89.9%.

Take `O=C(CSCc1c(F)cccc1Cl)Nc1ccc(S(=O)(=O)N2CCCCCC2)cc1` [CBK268497]: the viability at 28.5 h, 10 µM was determined as 100%.

For `COCOc1ccc(-c2ncc(OCCN3CCCC3=O)nc2NC(C)=O)cc1` [CBK145253], the viability at 28.5 h, 10 µM was 104%.

For the compound `O=C1NCC2(CCN(C(=O)c3ccco3)CC2)Oc2ccccc21` [CBK282919], the viability at 28.5 h, 10 µM came out at 103%.

Turning to `CC(Oc1ccc(F)cc1)C(=O)N(C)CC1(C)COC1` (centres unmarked) [CBK281702], the viability at 28.5 h, 10 µM amounted to 89.7%.

In the case of `Cc1nn(-c2ccc(F)cc2)c2[nH]c(=O)c(CNC(C)(C)C)cc12` [CBK283120], the viability at 28.5 h, 10 µM stood at 102%.

Turning to `N#Cc1nc(-c2ccco2)oc1N1CCN(C(=O)c2cc3c(s2)CCCCC3)CC1` [CBK240763], the viability at 28.5 h, 10 µM was found to be 93.9%.

`Cc1nc2c(c(=O)[nH]1)CN(Cc1sccc1C)CC2` [CBK283950]: the viability at 28.5 h, 10 µM turned out to be 91.1%.

Regarding `O=C(c1cccs1)N1CCN(S(=O)(=O)c2cccc([N+](=O)[O-])c2)CC1` [CBK266184], the viability at 28.5 h, 10 µM came to 94.7%.

In the case of `CCn1c(C)cc2cc(NC(=O)c3cnc(C)nc3C)ccc21` [CBK283260], the viability at 28.5 h, 10 µM was found to be 104%.

Consider `Cc1nc(-c2ccccc2)sc1CNC(=O)COc1ccc(F)cc1` [CBK092350], for which the viability at 28.5 h, 10 µM worked out at 86.3%.

With `Cc1ccc2[nH]c(SC(C)C(=O)N3CCOCC3)nc2c1` (centres unmarked) [CBK306187], the viability at 28.5 h, 10 µM amounted to 96%.

`N#CCCCN1CCC2(CC1)CN(CC(N)=O)c1ccccc12` [CBK137024]: the viability at 28.5 h, 10 µM was found to be 97.7%.

`O=[N+]([O-])c1ccccc1S(=O)(=O)N1CCN(S(=O)(=O)c2ccc3ccccc3c2)CC1` [CBK264296]: the viability at 28.5 h, 10 µM was 107%.

Still in this series, the particulars now being: human, hela cells, % viability, bulk resorufin, single well.
Take `CCC(=O)N(C[C@H]1CCC[C@@H]1N(C)C)c1ccc(Cl)c(Cl)c1` [CBK003408]: the viability at 28.5 h, 10 µM came out at 96.5%.
